Measurements as given in article PMC12591484 (PLOS One, 2025).

Legend:
Assay in all cases: Drug protection from pCMBS modification (SCAMP)
Assay type in all cases: cell-based
[1] = target: T1, α1β3L231Cγ2L GABAA receptors (Homo sapiens, UniProt P14867+P18507+P28472, L256C); set-up: key: +: SCAMP is Substituted Cysteine Modification and Protection and is positive when adding anesthetic to cysteine modifier significantly reduces persistent post-exposure effects due to covalent modification; -: Negative results are indicated by “–“ symbols; details: results of this study (*); some cells also cite [9]
T1 construct: expressed in transfected cells; host or cells: Xenopus oocytes injected with capped mRNA, 1α:1β:5γ
Experimental: (§1) Experiments were performed in ND-96 buffer at room temperature (20–22°C). Oocytes were placed in a low-volume (30µl) flow chamber and impaled with borosilicate microelectrodes filled with 3M KCl (resistance 0.5–3 MΩ) and voltage-clamped at −50 mV (model OC-725C; Warner Instruments, Hamden, CT, USA). Superfusate solutions in ND-96 were delivered at 2 ml/min from glass syringe reservoirs via computer-controlled valves (VC-8; Warner Instruments), a micro-manifold (ALA-VM8; ALA Scientific Instruments, Farmingdale, NY, USA), and PTFE tubing. Currents were digitized at 200 Hz on a computer running ClampEx v8.0 software (Molecular Devices, San Jose, CA, USA). Digitized traces were filtered with a 10-Hz low-pass Bessel function, leak corrected and analyzed for peak amplitude off-line using Clampfit v8 software (Molecular Devices).
(§2) Drug protection from pCMBS modification was assessed under pCMBS exposure conditions that produced approximately half of the maximal modification ratio for each mutant receptor, and a least a value of 3. This approach balanced the magnitude of functional modification signals (smaller with less pCMBS exposure) against the challenge of using a reversibly bound ligand to competitively block an irreversible covalent cysteine-modifying reaction. […] Each oocyte was used in a single SCAMP experiment. […] Etomidate was used as a positive control for anesthetic protection in α1M236C and β3M286C mutants and as a negative control in α1S270C, α1A291C, β3L231C, γ2S301C, γ2I242C, and γ2L246C mutants. R-mTFD-MPAB was used as a positive control in α1S270C, α1A291C, β3L231C, and γ2LS301C mutants and as a negative control in α1M236C and β3M286C mutants. For each cysteine mutant and protective drug combination, five oocytes were studied.
(§3) Non-linear least squares fits and statistical analyses were performed in Prism 10.4.0. (GraphPad Software, San Diego, CA, USA). […] Protection (steric inhibition of pCMBS modification) was inferred when anesthetics produced significant reductions in modification ratios relative to control (no anesthetic) values. The statistical significance threshold was p < 0.05.

[2] = target: T2, α1M236Cβ3γ2L GABAA receptors (Homo sapiens, UniProt P14867+P18507+P28472, M263C); set-up: key: +: Mutant-function studies are deemed positive when bulky mutations (mostly tryptophans) at the site significantly reduce positive modulation by anesthetics; -: Negative results are indicated by “–“ symbols; details: results of this study (*); some cells also cite [9]
T2 construct: expressed in transfected cells; host or cells: Xenopus oocytes injected with capped mRNA, 1α:1β:5γ
Experimental: as §1, §2, §3

[3] = target: T3, α1S270Cβ3γ2L GABAA receptors (Homo sapiens, UniProt P14867+P18507+P28472, S297C); set-up: key: +: Mutant-function studies are deemed positive when bulky mutations (mostly tryptophans) at the site significantly reduce positive modulation by anesthetics; -: Negative results are indicated by “–“ symbols; details: results of this study (*)
T3 construct: expressed in transfected cells; host or cells: Xenopus oocytes injected with capped mRNA, 1α:1β:5γ
Experimental: as §1, §2, §3

T1 sequence (P14867 28-456): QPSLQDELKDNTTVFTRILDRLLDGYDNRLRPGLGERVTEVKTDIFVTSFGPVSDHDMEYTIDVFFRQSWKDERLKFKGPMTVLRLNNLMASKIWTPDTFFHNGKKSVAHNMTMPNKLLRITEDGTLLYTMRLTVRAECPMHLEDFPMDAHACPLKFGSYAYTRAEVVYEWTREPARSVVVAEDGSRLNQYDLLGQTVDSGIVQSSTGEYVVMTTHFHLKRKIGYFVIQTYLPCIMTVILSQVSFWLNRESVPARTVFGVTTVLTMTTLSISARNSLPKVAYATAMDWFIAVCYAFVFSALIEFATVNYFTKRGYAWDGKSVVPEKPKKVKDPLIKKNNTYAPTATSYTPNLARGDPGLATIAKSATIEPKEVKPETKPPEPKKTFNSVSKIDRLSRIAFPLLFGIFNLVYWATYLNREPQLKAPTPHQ
T1 sequence (P28472 26-473 L256C): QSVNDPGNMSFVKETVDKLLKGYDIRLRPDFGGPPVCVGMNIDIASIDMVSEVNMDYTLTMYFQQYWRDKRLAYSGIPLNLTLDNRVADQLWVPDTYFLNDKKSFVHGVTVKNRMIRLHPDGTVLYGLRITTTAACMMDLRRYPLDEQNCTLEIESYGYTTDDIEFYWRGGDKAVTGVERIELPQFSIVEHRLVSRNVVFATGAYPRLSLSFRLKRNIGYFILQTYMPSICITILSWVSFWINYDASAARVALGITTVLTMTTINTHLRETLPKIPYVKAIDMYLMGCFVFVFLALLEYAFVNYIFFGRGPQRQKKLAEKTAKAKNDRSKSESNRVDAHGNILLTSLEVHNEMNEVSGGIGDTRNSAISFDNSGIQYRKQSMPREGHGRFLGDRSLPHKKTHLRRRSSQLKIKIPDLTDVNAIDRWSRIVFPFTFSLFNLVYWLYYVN
T1 sequence (P18507 40-475): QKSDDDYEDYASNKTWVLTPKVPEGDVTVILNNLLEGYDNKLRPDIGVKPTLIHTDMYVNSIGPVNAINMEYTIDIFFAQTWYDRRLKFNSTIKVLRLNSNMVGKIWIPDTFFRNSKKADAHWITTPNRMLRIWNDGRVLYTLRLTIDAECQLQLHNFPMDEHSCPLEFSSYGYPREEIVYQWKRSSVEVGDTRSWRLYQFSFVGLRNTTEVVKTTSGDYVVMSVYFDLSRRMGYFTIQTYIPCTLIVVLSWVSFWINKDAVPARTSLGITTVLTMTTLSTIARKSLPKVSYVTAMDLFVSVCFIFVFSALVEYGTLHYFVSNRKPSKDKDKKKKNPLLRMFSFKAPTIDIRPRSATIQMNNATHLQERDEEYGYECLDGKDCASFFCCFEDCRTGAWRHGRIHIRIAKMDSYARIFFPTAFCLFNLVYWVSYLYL
T3 sequence (P14867 28-456 S297C): as the sequence (P14867 28-456) above, with S270C counted along it
T3 sequence (P28472 26-473): as the sequence (P28472 26-473 L256C) above, with C231L counted along it
T3 sequence (P18507 40-475): as the sequence (P18507 40-475) above
T2 sequence (P14867 28-456 M263C): as the sequence (P14867 28-456) above, with M236C counted along it
T2 sequence (P28472 26-473): as the sequence (P28472 26-473 L256C) above, with C231L counted along it
T2 sequence (P18507 40-475): as the sequence (P18507 40-475) above

| SMILES | SCAMP result, β3– (M1) L231 [1] | SCAMP result, α1– (M1) M236 [2] | SCAMP result, α1+ (M2, M3) S270 [3] |
| --- | --- | --- | --- |
| C=CCC1(c2cccc(C3(C(F)(F)F)N=N3)c2)C(=O)NC(=O)N(C)C1=O (stereo not drawn) [R-mTFD-MPAB, R-5-allyl-1-methyl-5-(m-trifluoromethyl-diazirynylphenyl) barbituric acid] | +^[9], * | -^[9], * |  |
| CCOC(=O)c1cncn1[C@H](C)c1ccccc1 [etomidate, R-etomidate] |  |  | -* |
| CC(C)c1cc(C2(C(F)(F)F)N=N2)cc(C(C)C)c1CO [pTFD-di-iPr-BnOH] | +* | -* | -* |
